Converted amounts (≈) assume the structure as drawn. “And” between values parts separate entries of the source, which are not always exact repeats. Identical values can stand only once. “Also recorded” adds a separate entry of the source. Like-named read-outs stand apart in the source and are kept apart here.
Experiments:
[1] = tested on: R. subcapitata; test: Algal growth inhibition test, ISO 8692; details: for Test Score / EC10 (growth inhibition): 72 h exposure; for EC50 / inhibition at 3.125 µg/mL: Raphidocelis subcapitata; for EC50: read-out: EC50 (growth inhibition); for inhibition at 3.125 µg/mL: read-out: growth inhibition
Method: The algal growth inhibition test (72 h) with R. subcapitata was carried out according to ISO 8692 [58]. The algal density was determined by spectrophotometric analysis (DR5000, Hach Lange GbH, Weinheim, Germany) at 670 nm. The concentrations tested correspond to 0.19, 0.39, 0.78, 1.56, and 3.12 mg L^−^1 and a negative control of 0 mg L^−^1. The growth inhibition was calculated as the difference in growth at the end of the test of the sample and the control group. Toxicity tests were carried out in triplicate.
(§1) Data analysis was conducted using RStudio for Windows (Version 2024.09.1). Dose–response models were applied to estimate the effective concentrations (EC10 and EC50) for the tested endpoints using the “drc” package. For D. magna, the data were modeled with a binomial log-logistic approach, whereas data for R. subcapitata, A. fischeri and L. sativum were fitted to log-logistic models with the upper limit constrained to 100. Furthermore, to ensure assay sensitivity and validity, a positive control exposed to potassium dichromate for the aquatic species and copper chloride for C. elegans was tested under the same experimental conditions.

[2] = tested on: A. fischeri; test: Bioluminescence (light) inhibition test, ISO 11348-3; details: for EC50 / inhibition at 3.125 µg/mL: Aliivibrio fischeri, 0.5 h; for EC50: read-out: EC50 (light inhibition), 30 min exposure; for inhibition at 3.125 µg/mL: read-out: light inhibition
Method: The bioluminescence inhibition test (30 min) was detected with the A. fischeri (NRRLB-11177) supplied by MicroBioTest, Gent, Belgium, and according to ISO 11348-3 [59]. The bioluminescence was determined by the luminometer Microtox (Model 500 analyzer, New Castle, DE, USA) at 490 nm. To provide the required osmotic pressure for the bacterium, the stock solution was diluted to perform the test in saline water solution (2% sodium chloride, NaCl). The concentrations tested correspond to 0.19, 0.39, 0.78, 1.56, and 3.12 mg L^−^1 and a negative control of 0 mg L^−^1. Toxicity tests were performed in triplicate with a control, and the percentage luminescence inhibition was expressed as the ratio of the decrease in bacterial light production to the remaining light.
as §1

[3] = Stability (photodegradation) in ISO 8692:2012 medium, quantified by HPLC; type: physicochemical; details: 20 °C, 254 nm light
Method: For the photodegradation assays, 3 mg of MAT and 3 mg of LAC were separately dissolved in 150 µL of DMSO and added to 3 mL of International Organization for Standardization (ISO) 8692:2012 medium. The solutions were exposed to 254 nm of light for up to 16 days. At specific time intervals (1, 2, 3, 6, and 16 days), 400 µL of the solutions were collected and analyzed by TLC using n-hexane/EtOAc (75:25, v/v) as the eluent, with MAT and LAC standard samples serving as references.
HPLC analysis was performed in isocratic mode and with the same ISO medium solutions, using MeCN–H2O (0.1% v/v formic acid) at a 60:40 (v/v) ratio as the mobile phase, with a flow rate of 0.5 mL/min. Detection was carried out at 220 nm with a 20 μL injection loop, monitoring the chromatogram for over 50 min to identify potential degradation products. Each sample was analyzed in triplicate. Control solutions containing only the culture medium and DMSO (without MAT or LAC) were also analyzed under identical conditions to ensure specificity.
Calibration curves for MAT and LAC were prepared by injecting standard samples at concentrations ranging from 0.022 to 2.2 mg for MAT and 0.004 to 2.2 mg for LAC. These standards were used to optimize the method and quantify the degradation products.

[4] = tested on: L. sativum; test: Plant germination and growth phytotoxicity test; type: in vivo, Lepidum sativum; details: 72 h exposure; for germination: tested concentrations up to 94 mg L^−1; for EC50: Lepidium sativum, read-out: EC50 (shoot length)
Method: Lepidum sativum seeds were purchased from Microbiotests (Gent, Belgium) and were used for the phytotoxicity test. Tests were conducted following the standard method. Seeds (n = 10) were placed in 10 g of soil medium and exposure was carried out in triplicates. […] Germination (%) and root elongation inhibition were combined to calculate the germination index (GI, %).

[5] = tested on: C. elegans; test: Nematode survival bioassay in soil, ASTM E2172-01; type: in vivo; details: for mortality: 24 h exposure, across tested concentrations (1.73 to 94 mg L^−1); for Test Score: N2, Bristol variant (wild type), Caenorhabditis elegans, in vivo, 24 h
Method: The nematode bioassay was carried out using the Caenorhabditis elegans wild-type strain N2, Bristol variant, according to the ASTM E2172—01 Standard Method (2014). Culture was maintained on NGM (nematode growth media) plates seeded with Escherichia coli (uracil-deficient OP50 strain) and stored at 20 °C. The tests were conducted using age-synchronized adult nematodes, obtained by lysing gravid nematodes with a bleaching solution (10 g/L NaOH, 10.5 g/L NaOCl), followed by centrifugation and washing with an M9 mineral medium (2.2 mM KH2PO4, 4.2 mM Na2HPO4, 85.6 mM NaCl, and 1 mM MgSO4). The synchronized nematodes were then transferred to NGM agar plates and left to recover overnight.
Soil samples (2.33 g) were hydrated to 35–45% of their dry weight using K-medium in centrifuge tubes. Ten worms were transferred to each tube and exposed to the soil samples for 24 h at 20 °C. […] Treatments were performed in triplicate, with worms kept unfed during the exposure period. Nematodes were extracted by centrifugation (2000 rpm, 2 min) using silica gel (Ludox TM 50, Sigma-Aldrich, St. Louis, MO, USA) with a specific density of 1.13 g/mL. The supernatant was then transferred to 100 mm glass Petri dishes and washed with Keller (K) medium. Extracted individuals were counted under a microscope (40× magnification), with mortality as the measured endpoint. Test validity required a minimum of 80% nematode recovery and 90% survival in the control group.

[6] = Hazard classification and weight score over the test battery; details: for hazard classification: classes I (no acute hazard) to V (very high acute hazard); for Weight Score [%]: overall, all tests performed
Method: When possible, the EC50 values derived from the tests were used for toxicity classification following the methodology in [65]. Compounds were categorized into five hazard classes, ranging from Class I (no acute hazard) to Class V (very high acute hazard). Additionally, weight scores for each test were calculated to quantify the relative level of toxicity, with scores assigned as follows: 0 (no significant toxic effect), 1 (significant toxic effect), 2 (toxic effect), and 3 (100% toxic effect). The weight score for each compound, based on the tests performed, was expressed as a percentage.

[7] = tested on: D. magna; test: Crustacean immobility acute test, ISO 6341; type: in vivo, Daphnia magna; details: for immobilization: 6.91 mg L^−1, 24 h exposure; for EC50: Daphnia magna, read-out: EC50 (immobilization); for Hazard Ranking: GHS ranking of 48 h EC50, this study
Method: The immobility acute test (48 h) with D. magna was conducted according to ISO 6341 [60]. D. magna was selected from laboratory stock cultures at the Hygiene Laboratory of the Department of Biology of the University of Naples Federico II, placed in ISO medium, and fed daily with the microalgae R. subcapitata. For the test, five neonates (third brood, <24 h old) were exposed in 10 mL of ISO medium to the following corresponding concentrations: 0.22, 0.43, 0.86, 1.73, 3.46, 6.91, 13.83, 27.65, and 55.30 mg L^−^1 and a negative control of 0 mg L^−^1. Each concentration had 4 replicates, and immobility was assessed after 24 and 48 h of exposure.
as §1

[8] = standard error in brackets, n = 3
[9] = 30 min exposure, standard error in brackets, n = 3
[10] = estimated from the model, outside of the tested concentrations

Structure (SMILES): CCCC#C/C=C1/C=CC(=O)O1 [LAC, (4Z)-lachnophyllum lactone]
- Test Score [1]: 1
- EC10 (growth inhibition) [1, 8]: 0.304 mg L^−1 and 0.304 (0.125) mg L^−1
- EC50 ([1]; 72 h): 9.88 µg/mL (≈ 60.9 µM)
- inhibition at 3.125 µg/mL ([1]; 72 h): 36%
- Test Score ([2]; 30 min exposure): 1
- EC50 (light inhibition) ([2]; 30 min exposure, estimated from the model, outside of the tested concentrations): 8.078 µg/mL (≈ 49.8 µM)
- EC10 (light inhibition) [2, 9]: 0.524 mg L^−1 and 0.524 (0.212) mg L^−1
- EC50 [2, 10]: 8.07 µg/mL (≈ 49.8 µM)
- inhibition at 3.125 µg/mL [2]: < 40%
- Degraded Compound (%) ([3]; exposition time 1 day): 8.5%
- Degraded Compound (%) ([3]; exposition time 2 days): 19.23%
- Degraded Compound (%) ([3]; exposition time 3 days): 26.58%
- Degraded Compound (%) ([3]; exposition time 6 days): 28.24%
- EC10 (shoot length) [4]: 70.87 mg L^−1 and 70.87 (195.32) mg L^−1
- Test Score [4]: 3
- germination [4]: no effects; also recorded: unaffected
- EC50 [4]: 85.9 µg/mL (≈ 530 µM)
- mortality [5]: no mortality
- Test Score [5]: 0
- hazard classification [6]: Class II
- Weight Score [%] [6]: 53.33%
- immobilization [7]: 100%
- EC10 (immobilization) ([7]; 24 h exposure): 1.67 (0.313) mg L^−1
- EC10 (immobilization) ([7]; 48 h exposure): 1.499 mg L^−1 and 1.49 (1.063) mg L^−1
- EC50 (immobilization) ([7]; 48 h exposure): 1.728 µg/mL (≈ 10.7 µM)
- Test Score ([7]; 48 h exposure): 3
- EC50 ([7]; 24 h, 24 h exposure): 2.44 µg/mL (≈ 15 µM)
- EC50 ([7]; 48 h, 48 h exposure): 1.72 µg/mL (≈ 10.6 µM)
- Hazard Ranking [7]: *** (toxic (<1 mg L^−1 ≤ 10 mg L^−1))

Structure (SMILES): C/C=C\C#C/C=C1/C=CC(=O)O1 [MAT, (4Z,8Z)-matricaria lactone]
- growth inhibition (average) ([1]; 72 h, concentrations 0.19 to 1.56 mg L^−1, negative = stimulation): approximately −10%
- Test Score [1]: 0
- EC10 (growth inhibition) [1, 10]: 3.417 mg L^−1 and 3.417 (0.620) * mg L^−1
- EC50 ([1]; 72 h): 4.52 µg/mL (≈ 28.2 µM)
- inhibition at 3.125 µg/mL ([1]; 72 h): -2.4%
- Test Score ([2]; 30 min exposure): 2
- EC10 (light inhibition) [2, 9]: 0.063 mg L^−1 and 0.063 (0.013) mg L^−1
- EC50 [2, 8]: 0.642 µg/mL (≈ 4.01 µM)
- inhibition at 3.125 µg/mL [2]: ~80%
- Degraded Compound (%) ([3]; exposition time 1 day): 90% and 89.74%
- Degraded Compound (%) ([3]; exposition time 2 days): 90.06%
- Degraded Compound (%) ([3]; exposition time 3 days): 90.38%
- Degraded Compound (%) ([3]; exposition time 6 days): 94.55%
- EC10 (shoot length) [4]: 38.48 mg L^−1 and 38.48 (23.979) mg L^−1
- Test Score [4]: 2
- germination [4]: no effects; also recorded: unaffected
- EC50 [4]: 82.3 µg/mL (≈ 514 µM)
- mortality [5]: no mortality
- Test Score [5]: 0
- hazard classification [6]: Class II
- Weight Score [%] [6]: 46.66%
- immobilization [7]: 100%
- EC10 (immobilization) ([7]; 24 h exposure): 3.11 (1.894) mg L^−1
- EC10 (immobilization) ([7]; 48 h exposure): 1.215 mg L^−1 and 1.21 (0.294) mg L^−1
- EC50 (immobilization) ([7]; 48 h exposure): 2.239 µg/mL (≈ 14 µM)
- Test Score ([7]; 48 h exposure): 3
- EC50 ([7]; 24 h, 24 h exposure): 3.56 µg/mL (≈ 22.2 µM)
- EC50 ([7]; 48 h, 48 h exposure): 2.23 µg/mL (≈ 13.9 µM)
- Hazard Ranking [7]: *** (toxic (<1 mg L^−1 ≤ 10 mg L^−1))
